Consider 11 molecules from ChEMBL document CHEMBL1201862, “PubChem BioAssay data set” (2004).

Holding throughout (experiment): NCI anticancer screen, dose series, 48 h
Experiment [1] deals with CAKI-1.
Experiment [2] has as its system CCRF-CEM.
Experiment [3] deals with HOP-62.
The test system of experiment [4] is HT-29.
In experiment [5] the test system is LOX IMVI.
In experiment [6] the test system is MCF7.
The subject of experiment [7] is MDA-MB-231.
For experiment [8], the system named is MOLT-4.
Experiment [9] relates to OVCAR-8.
For experiment [10], the system named is PC-3.
For experiment [11], the system named is SK-OV-3.
The subject of experiment [12] is UACC-62.
In experiment [13] the test system is HCT-116.
Experiment [14] concerns K562.
The subject of experiment [15] is NCI-H460.
Experiment [16] concerns SF-268.
The subject of experiment [17] is SF-295.
Experiment [18] has as its system SNB-19.
For experiment [19], the system named is UACC-257.

SMILES strings stand for the structures.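 48-hour exposure; five concentrations; linearly interpolated endpoints. GI50: concentration for 50% inhibition of growth.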 Calls of active or inactive are those of the source. No stated cut-off is given here; in the data, active = GI50 up to about 1.1 µM and inactive = higher. A value given as a limit tells only on which side of the number the result lay.

For `O=C(O)CCCOc1cc(-c2ccccc2F)nc2cc3c(cc12)OCO3`, the GI50 in experiment [1] is 9.64 µM (inactive); in experiment [2] it was 3.27 µM (inactive); in experiment [3], 4.01 µM (inactive); in experiment [4] it was 4.54 µM (inactive); in experiment [5], 4.51 µM (inactive); in experiment [6], 5.35 µM (inactive). In addition, the GI50 in experiment [7] was 31.3 µM (inactive); in experiment [8] it was 5.9 µM (inactive); in [9] it was 5.66 µM (inactive); in experiment [10], 3 µM (inactive); in [11], 6.11 µM (inactive); in [12], 6.17 µM (inactive).
Regarding `Cc1ccc(NC(=O)CSc2nnc(Cc3ccccc3)o2)cc1`, the GI50 in experiment [1], in experiment [2], in experiment [13], in [3], in experiment [4] and in experiment [14] was > 100 µM (inactive) in each case. In addition, the GI50 is > 100 µM (inactive) in experiment [5]; > 100 µM (inactive) in [8]; > 100 µM (inactive) in experiment [15]; 97.9 µM (inactive) in experiment [9]; > 100 µM (inactive) in experiment [16]; > 100 µM (inactive) in [17]. Also, the GI50 in [11], in experiment [18], in experiment [19] and in experiment [12] was > 100 µM (inactive) in each case.
With `COc1ccc2c(c1)NC1(CCN(CCCC(=O)c3ccc(F)cc3)CC1)N=N2`, the GI50 is 29.6 µM (inactive) in [1]; 20 µM (inactive) in [2]; 17.1 µM (inactive) in experiment [13]; 24.7 µM (inactive) in experiment [3]; 24.6 µM (inactive) in experiment [4]; 19.4 µM (inactive) in experiment [14]. For the same molecule, the GI50 in experiment [5] was 18.7 µM (inactive); in experiment [6] it was 17.4 µM (inactive); in experiment [7], 22.5 µM (inactive); in experiment [8] it was 15.3 µM (inactive); in [15], 26.1 µM (inactive); in experiment [10], 23.1 µM (inactive). The GI50 was 41.8 µM (inactive) in experiment [16]; 19.6 µM (inactive) in [17]; 33.4 µM (inactive) in [11]; 35.3 µM (inactive) in experiment [18]; 17.6 µM (inactive) in [19]; 20.9 µM (inactive) in [12].
Regarding `N=c1nc(N)nc(N)n1-c1ccc(S(N)(=O)=O)cc1`, the GI50 in [1], in [2], in experiment [13], in experiment [3], in [4] and in experiment [14] was > 100 µM (inactive) each time. For the same molecule, the GI50 in [5], in experiment [7], in experiment [8], in experiment [15], in experiment [9] and in experiment [10] was > 100 µM (inactive) each time. In addition, the GI50 in experiment [16], in experiment [17], in experiment [18], in experiment [19] and in experiment [12] was > 100 µM (inactive) in each case.
Regarding `Cc1ccc2c(c1)CC1(C2=O)[C@H](c2ccccc2)C2C(=O)c3ccc(C)cc3C2[C@H]1c1ccccc1` (stereo not given in full), the GI50 was > 100 µM (inactive) in experiment [1]; > 100 µM (inactive) in [2]; 24.9 µM (inactive) in [13]; > 100 µM (inactive) in experiment [3]; > 100 µM (inactive) in [4]; 30.7 µM (inactive) in experiment [14]. The GI50 in [5] is > 100 µM (inactive); in experiment [6] it was 69.8 µM (inactive); in experiment [7], > 100 µM (inactive); in experiment [8] it was 43.8 µM (inactive); in experiment [15], > 100 µM (inactive); in experiment [9] it was > 100 µM (inactive). The GI50 is 37.8 µM (inactive) in experiment [10]; > 100 µM (inactive) in experiment [16]; > 100 µM (inactive) in experiment [17]; > 100 µM (inactive) in [11]; > 100 µM (inactive) in [18]; > 100 µM (inactive) in [19]. In experiment [12], the GI50 is > 100 µM (inactive).
Consider `COC(=O)C(=O)C(C(=O)C=C(C)C)C(=O)C(=O)Nc1cccc(C(C)=O)c1` (stereo not given), for which the GI50 in experiment [1], in experiment [2], in experiment [13], in experiment [3], in experiment [4] and in experiment [14] was > 100 µM (inactive) in each case. Besides, the GI50 in experiment [5], in experiment [8], in [15], in [9], in experiment [16] and in experiment [17] was > 100 µM (inactive) each time. Besides, the GI50 in [11], in [18], in experiment [19] and in experiment [12] was > 100 µM (inactive) throughout.
For `O=C1C=CC(S(=O)(=O)C2=C/C(=C/Nc3ccc(Cl)cc3)C(=O)C=C2)=C/C1=C/Nc1ccc(Cl)cc1`, the GI50 in experiment [1], in [2], in [13], in experiment [3], in [4] and in [14] was > 100 µM (inactive) each time. In addition, the GI50 in experiment [5], in experiment [8], in experiment [15], in experiment [9], in [16] and in experiment [17] was > 100 µM (inactive) each time. The GI50 in experiment [11], in experiment [18], in experiment [19] and in experiment [12] was > 100 µM (inactive) in each case.
Turning to `Nc1nc(-c2ccccc2)c(Cl)c(-c2cc(Cl)ccc2O)n1`, the GI50 in [1] is 20.5 µM (inactive); in experiment [2], > 96.2 µM (inactive); in [13], 13.4 µM (inactive); in [3], 14.9 µM (inactive); in experiment [4], 49.2 µM (inactive); in experiment [14], > 46.5 µM (inactive). Moreover, the GI50 was 21.2 µM (inactive) in [5]; 2.04 µM (inactive) in experiment [6]; 48.5 µM (inactive) in experiment [7]; > 100 µM (inactive) in experiment [8]; 17 µM (inactive) in experiment [15]; 14 µM (inactive) in [9]. Moreover, the GI50 in experiment [10] was 36.1 µM (inactive); in experiment [16] it was 18.3 µM (inactive); in [17] it was 48.4 µM (inactive); in [11], 17.3 µM (inactive); in [18], 19.2 µM (inactive); in experiment [19], > 100 µM (inactive). In addition, the GI50 in experiment [12] is 50.8 µM (inactive).
With `Cn1c(N)[n+](C(=O)OCc2ccccc2)c(=O)c2c1ncn2C(=O)OCc1ccccc1`, the GI50 was 53 µM (inactive) in experiment [1]; > 100 µM (inactive) in [2]; 52.2 µM (inactive) in [13]; 27 µM (inactive) in experiment [3]; > 100 µM (inactive) in experiment [4]; > 100 µM (inactive) in experiment [14]. Also, the GI50 was > 100 µM (inactive) in experiment [5]; > 100 µM (inactive) in experiment [8]; > 100 µM (inactive) in experiment [15]; > 100 µM (inactive) in experiment [9]; 28.1 µM (inactive) in experiment [16]; 49.5 µM (inactive) in [17]. Besides, the GI50 was 28.9 µM (inactive) in experiment [11], 30.8 µM (inactive) in experiment [18], > 100 µM (inactive) in experiment [19] and > 100 µM (inactive) in [12].
Regarding `COCn1cnc2c(=O)n(-c3ccc(OC)cc3)c(=S)n(-c3ccc(OC)cc3)c21`, the GI50 in [1], in experiment [2], in experiment [13], in experiment [3], in experiment [4] and in [14] was > 100 µM (inactive) throughout. The GI50 in experiment [5], in experiment [6], in experiment [7], in experiment [8], in experiment [15] and in experiment [9] was > 100 µM (inactive) in each case. In addition, the GI50 in experiment [10], in [16], in [17], in experiment [11], in experiment [19] and in [12] was > 100 µM (inactive) each time.
For the molecule `CC[C@]1(O)C[C@H]2CN(CCc3c([nH]c4ccccc34)[C@@](C(=O)OC)(c3cc4c(cc3OC)N(C)[C@H]3[C@@](O)(C(=O)OC)[C@H](OC(C)=O)[C@]5(CC)C=CCN6CC[C@]43[C@@H]65)C2)C1`, the GI50 in experiment [1] was 0.00706 µM (active); in [2], 0.000641 µM (active); in experiment [13] it was 0.000481 µM (active); in experiment [3], 0.000832 µM (active); in [4], 0.000408 µM (active); in experiment [14], 0.000508 µM (active). For the same molecule, the GI50 in experiment [5] was 0.000538 µM (active); in experiment [6], 0.00045 µM (active); in [7] it was 0.000991 µM (active); in experiment [8] it was 0.000736 µM (active); in [15], 0.000629 µM (active); in [9], 0.00129 µM (active). In addition, the GI50 is 0.000412 µM (active) in experiment [10]; 0.000986 µM (active) in experiment [16]; 0.000492 µM (active) in experiment [17]; 0.000867 µM (active) in experiment [11]; 0.00115 µM (active) in experiment [18]; 0.000373 µM (active) in experiment [12].
